Measured values taken from the supplement of paper PMC10307832.

Experiments:
Assay in all cases: relative viability (nuclei count vs DMSO), 5 days (fraction); higher = more cells survive
Carfilzomib + Decitabine = compound: CC(C)C[C@H](NC(=O)[C@H](CCc1ccccc1)NC(=O)CN1CCOCC1)C(=O)N[C@@H](Cc1ccccc1)C(=O)N[C@@H](CC(C)C)C(=O)[C@@]1(C)CO1 [Carfilzomib] + Nc1ncn([C@H]2C[C@H](O)[C@@H](CO)O2)c(=O)n1 [Decitabine] (partner 2 µM)
How it was run: (§1)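 Nuclei were stained with Hoechst during a one-step fixation (final 0.05% Triton X-100, 1% formaldehyde, 1 ug/ml Hoechst) carried out 5 days after dosing, then counted on 4× images. The cells, lung cancer lines in 1536-well plates, had been dosed by pin tool the day after seeding with one drug alone or a fixed anchor-drug dose plus five library-drug doses (not always all listed) in √10 steps. Relative viability is the nuclei count in treated wells divided by that in vehicle wells, and each value is the median of duplicate plates.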

Carfilzomib + Vorinostat = compound: CC(C)C[C@H](NC(=O)[C@H](CCc1ccccc1)NC(=O)CN1CCOCC1)C(=O)N[C@@H](Cc1ccccc1)C(=O)N[C@@H](CC(C)C)C(=O)[C@@]1(C)CO1 [Carfilzomib] + O=C(CCCCCCC(=O)Nc1ccccc1)NO [Vorinostat] (partner 1 µM)
How it was run: as §1

Crizotinib + Dasatinib = compound: C[C@@H](Oc1cc(-c2cnn(C3CCNCC3)c2)cnc1N)c1c(Cl)ccc(F)c1Cl [Crizotinib] + Cc1nc(Nc2ncc(C(=O)Nc3c(C)cccc3Cl)s2)cc(N2CCN(CCO)CC2)n1 [Dasatinib] (partner 0.075 µM)
How it was run: as §1

Olaparib + Navitoclax = compound: O=C(c1cc(Cc2n[nH]c(=O)c3ccccc23)ccc1F)N1CCN(C(=O)C2CC2)CC1 [Olaparib] + CC1(C)CCC(c2ccc(Cl)cc2)=C(CN2CCN(c3ccc(C(=O)NS(=O)(=O)c4ccc(N[C@H](CCN5CCOCC5)CSc5ccccc5)c(S(=O)(=O)C(F)(F)F)c4)cc3)CC2)C1 [Navitoclax] (partner 0.5 µM)
How it was run: as §1

Cell Line | relative viability (Carfilzomib + Decitabine; first compound 0.001 µM) | relative viability (Carfilzomib + Decitabine; first compound 0.003162 µM) | relative viability (Carfilzomib + Decitabine; first compound 0.01 µM) | relative viability (Carfilzomib + Decitabine; first compound 0.03162 µM) | relative viability (Carfilzomib + Decitabine; first compound 0.1 µM) | relative viability (Carfilzomib + Vorinostat; first compound 0.001 µM) | relative viability (Carfilzomib + Vorinostat; first compound 0.003162 µM) | relative viability (Carfilzomib + Vorinostat; first compound 0.01 µM) | relative viability (Carfilzomib + Vorinostat; first compound 0.03162 µM) | relative viability (Carfilzomib + Vorinostat; first compound 0.1 µM) | relative viability (Crizotinib + Dasatinib; first compound 0.01 µM) | relative viability (Crizotinib + Dasatinib; first compound 0.03162 µM) | relative viability (Crizotinib + Dasatinib; first compound 0.1 µM) | relative viability (Crizotinib + Dasatinib; first compound 0.3162 µM) | relative viability (Crizotinib + Dasatinib; first compound 1 µM) | relative viability (Olaparib + Navitoclax; first compound 0.08 µM) | relative viability (Olaparib + Navitoclax; first compound 0.253 µM) | relative viability (Olaparib + Navitoclax; first compound 2.53 µM) | relative viability (Olaparib + Navitoclax; first compound 8 µM)
LOU-NH91 | 0.823 | 0.864 | 0.852 | 0.413 | 0.389 | 1.03 | 1.03 | 0.443 | 0.302 | 0.328 | 0.523 | 0.547 | 0.623 | 0.554 | 0.486 | 0.757 | 0.642 | 0.725 | 0.618
NCI-H1755 | 0.732 | 0.729 | 0.669 | 0.755 | 0.446 | 0.806 | 0.793 | 0.664 | 0.464 | 0.383 | 0.407 | 0.46 | 0.454 | 0.273 | 0.413 | 1.02 | 0.912 | 1.01 | 0.876
NCI-H647 | 0.365 | 0.321 | 0.274 | 0.049 | 0.0498 | 0.69 | 0.483 | 0.137 | 0.0309 | 0.0228 | 0.148 | 0.172 | 0.131 | 0.191 | 0.17 | 1.44 | 1.1 | 1.06 | 0.745
A549 | 0.167 | 0.292 | 0.109 | 0.254 | 0.0302 |  |  |  |  |  |  |  |  |  |  | 1.33 | 0.991 | 0.81 | 0.597
LCLC-103H | 0.722 | 0.732 | 0.793 | 0.728 | 0.387 | 0.809 | 0.941 | 0.772 | 0.497 | 0.218 | 0.479 | 0.418 | 0.416 | 0.497 | 0.484 |  |  |  | 
NCI-H1437 | 0.58 | 0.599 | 0.567 | 0.413 | 0.316 | 0.834 | 0.895 | 1.14 | 0.435 | 0.206 | 0.376 | 0.435 | 0.403 | 0.301 | 0.396 | 1.12 | 1.01 | 0.952 | 0.761
NCI-H2170 | 0.451 | 0.474 | 0.448 | 0.477 | 0.22 | 0.751 | 0.86 | 0.916 | 0.404 | 0.152 | 0.642 | 0.506 | 0.566 | 0.481 | 0.624 | 0.551 | 0.533 | 0.53 | 0.448
HCC-15 | 0.606 | 0.725 | 0.637 | 0.424 | 0.127 | 0.927 | 0.821 | 0.951 | 0.506 | 0.132 | 0.557 | 0.573 | 0.639 |  | 0.562 | 0.751 | 0.657 | 0.719 | 0.643
NCI-H1648 | 0.447 | 0.495 | 0.474 | 0.404 | 0.255 | 0.64 | 0.613 | 0.954 | 0.28 | 0.212 |  |  |  |  |  |  |  |  | 
NCI-H661 | 0.583 | 0.585 | 0.568 | 0.598 | 0.394 | 0.821 | 0.861 | 0.808 | 0.553 | 0.215 | 0.811 |  | 0.899 | 0.809 | 0.98 |  |  |  | 
NCI-H650 | 0.342 | 0.314 | 0.316 | 0.31 | 0.139 | 0.354 | 0.468 | 0.532 | 0.132 | 0.107 | 0.472 | 0.434 | 0.512 | 0.388 | 0.406 |  |  |  | 
RERF-LC-KJ | 0.744 | 0.721 | 0.807 | 0.422 | 0.207 | 0.7 | 0.683 | 0.676 | 0.392 | 0.242 | 0.751 | 0.817 | 0.751 | 0.81 | 0.691 | 1.04 | 0.862 | 0.998 | 1.09
SK-LU-1 | 0.591 | 0.713 | 0.625 | 0.262 | 0.23 | 0.772 | 0.864 | 0.533 | 0.219 | 0.198 | 0.178 | 0.16 | 0.181 | 0.189 | 0.159 | 0.941 | 0.785 | 0.749 | 0.409
NCI-H1792 |  | 0.592 | 0.619 | 0.542 | 0.207 |  |  |  |  |  | 0.706 | 0.829 | 0.733 |  | 0.936 | 0.666 | 0.555 | 0.505 | 0.512
NCI-H1666 | 0.707 | 0.782 | 0.751 | 0.704 | 0.403 | 0.972 | 0.933 | 1.15 | 1.03 | 0.599 | 0.808 | 0.797 | 0.741 | 0.77 | 0.863 | 1.17 | 0.828 | 0.796 | 0.853
SK-MES-1 | 0.385 | 0.375 | 0.437 | 0.356 | 0.181 | 1.11 | 1.12 | 1.15 | 0.579 | 0.156 | 0.385 | 0.373 | 0.418 | 0.312 | 0.341 | 1.15 | 1.07 | 1.13 | 0.825
NCI-H1915 | 0.257 | 0.296 | 0.24 | 0.259 | 0.106 | 0.499 | 0.537 | 0.452 | 0.517 | 0.0617 | 0.307 | 0.338 | 0.315 |  | 0.317 | 0.721 | 0.725 | 0.739 | 0.486
SW 1573 | 0.551 | 0.52 | 0.297 | 0.0743 | 0.0554 | 0.648 | 1.31 | 0.243 | 0.0435 | 0.041 | 0.352 | 0.389 | 0.51 | 0.449 | 0.454 | 0.958 | 0.795 | 0.858 | 0.671
